Experiments:
HOC1 cells [1] = experiment: RPA and RAD51 foci immunofluorescence; assay type: cell-based, Human; settings: after PARPi or IR, compared with vehicle
Method: Immunofluorescence Staining and Microscopy: Briefly, cells were washed with PBS and fixed with 4% paraformaldehyde for 5 min, followed by permeabilization with 0.5% NP-40 and 1% Triton X-100 for 10 min Cells were then blocked with 5% FBS for 30 min and incubated with primary antibody (anti-RAD51, PC130, 1:100; anti-g-H2AX (Ser139), clone JBW301, 1:1000 from Millipore Corp; anti-RPA32, ab2175, 1:500 from Abcam) for 2 hr, followed by secondary antibody incubation for 1 hr at room temperature. Slides were sealed in mounting medium containing DAPI (Vector Laboratories, H1200) for further image acquisition. TE-2000 imaging acquisition system (Nikon) equipped with a 60× objective lens was used to capture images. Stained was quantified by ImageJ.

OVCAR3 xenografts = experiment: OVCAR3 xenograft; assay type: in vivo, mice; settings: Olaparib 100 mg/kg, AZD5153 2.5 mg/kg, oral gavage, daily, 35 days
Method: 6 weeks old female C.B-17 scid mice were purchased from Charles River Laboratories and used for OVCAR3 xenografts. Tumor cells were injected into female mice of approximately 8-10 weeks of age. All mice were housed under pathogen-free conditions at AstraZeneca AAALAC accredited facility. All animal experiments were conducted in compliance with the National Institute of Health guidelines for animal research and approved by the Institutional Animal Care and Use Committee of AstraZeneca.
OVCAR3 Xenograft: […] OVCAR3 cells were injected subcutaneously in the right flank of mice. Mice were randomized based on tumor volumes using stratified sampling and enrolled into control and treatment groups. Dosing began when mean tumor size reached approximately 200 mm^3 and continued for 35 days.

U2OS DR-GFP cells = experiment: U2OS DR-GFP HR reporter assay; assay type: cell-based, Human; settings: 100 nM for 24 hr, then I-Sce1 for 48 hr
Description: HR Repair Analysis: U2OS DR-GFP cells contain a single copy of the HR repair reporter substrate DR-GFP, which contains two nonfunctional GFP open reading frames, including one GFP-coding sequence that is interrupted by a recognition site for the I-SceI endonuclease. Expression of I-SceI leads to formation of a DSB in the I-SceI GFP allele, which can be repaired by HR using the nearby GFP sequence lacking the N- and C-termini, thereby producing functional GFP that can be detected by flow cytometry. […] Then, cells were transfected with a plasmid expressing I-SceI (pCBASce) for 48 hr. Cells transfected with an empty vector were used as a negative control. GFP-expressing plasmid (pEGFP-C1) was used for transfection efficiency control. Flow cytometry analysis was performed to detect GFP^+ cells using FACScalibur with CellQuest software (Becton Dickinson). The repair efficiency was scored as the percentage of GFP^+ cells.

HRD gene signature = HRD gene signature score applied to public transcriptional profiling data; settings: human or murine tumors; GEO datasets
Description: Microarray Analysis and IPA Analysis: Gene expression datasets of GSE29799 (Zuber et al., 2011), GSE66048 (Ambrosini et al., 2015), GSE44929 (Love′ n et al., 2013), GSE85840 (Rhyasen et al., 2016), GSE31365 (Delmore et al., 2011), and GSE43392 (Puissant et al., 2013) were downloaded from Gene Expression Omnibus (GEO) (https://www.ncbi.nlm.nih.gov/geo). Raw data were subjected to intensity normalization using affy package in R (Bioconductor), followed by log transformation and quantile normalization. Normalized data were checked for quality and determined to be free of outliers by analysis using box plots, density plots and MA plots. Differential expression genes after BRD4 inhibition were calculated using a linear model provided by the limma package in R based on the cutoffs: 2 for absolute fold change, 0.05 for p value.
HRD Score Acquisition from HRD Signature HRD signature consisting of 230 differentially expressed genes was obtained as previously described (Peng et al., 2014). Normalized gene expression data (GSE29799, GSE66048, GSE44929, GSE85840, GSE31365, and GSE43392) after BRD4 inhibition were subjected to unsupervised clustering with these 230 genes. HRD scores were determined by calculating the Pearson's correlations between median centered gene expression levels for HRD signature and gene expression levels for a given sample (Peng et al., 2014).

[2] = Toxicity analysis in the T127 model (blood counts, serum chemistry); assay type: in vivo, mice; settings: compared with the vehicle group
Description: Mice were sacrificed when tumor diameter reached maximum limits of 2.5 cmat Day 22 for tissue harvest and blood collection 3 hr after the final treatment.

cancer cell lines = experiment: Viability measurement (PrestoBlue, 96 hr) with CalcuSyn combination index; assay type: cell-based, Human; design: synergy with JQ1 at fixed PARPi concentration: dose or concentration left out as unconfirmed; settings: for synergy with JQ1 at fixed PARPi concentration: 96 hr, HOC1 cells; for synergistic effects in combinations with BRD4i (JQ1): similar combination indices indicative of synergy
Method: (§1) Viability Measurements: Five thousand cells were seeded into sterile 96-well plates and treated with indicated drug combinations for 96 hr. DMSO was used as a vehicle. PrestoBlue® Cell Viability Reagent (Thermo Fisher Scientific) was used to assess cell viability. Background values from empty wells were subtracted and data normalized to vehicle-treated control. Synergistic effects between both compounds were calculated using the Chou-Talalay equation in CalcuSyn software, which takes into account both potency (IC50) and shape of the dose-effect curve. […], and CI>1 indicates antagonism.

PARP = settings: cited from earlier work
HOC1 cells [3] = experiment: Alkaline comet assay; assay type: cell-based, Human; settings: 200 nM each, 48 hr
Method: Alkaline Single-Cell Agarose Gel Electrophoresis (Comet) Assays: Alkaline comet assays were performed with Comet Assay Kit (Trevigen) using manufacturer's instructions. Briefly, cell suspensions were embedded in LM (low melting) Agarose and deposited on comet slides. Slides were incubated for 1 hr at 4° C. in lysis solution, followed by immersing slides in freshly prepared alkaline unwinding solution (pH >13) for 20 min at room temperature in the dark. Electrophoresis was carried out for 30 min at 21 V in electrophoresis solution (pH >13). Slides were then stained with SYBR™ Gold (Thermo Fisher Scientific). Tail DNA content was analyzed with Comet score 1.5 software. DNA strand breakage was expressed as “comet tail moment”. The tail moment was measured for a minimum of 50 cells per sample, and average damage from 3 independent experiments was calculated.

DT40 cells = experiment: Viability dose response in DT40 WT and PARP1-/- cells; assay type: cell-based, Chicken
Method: as §1

Structure (SMILES) | tumor growth inhibitions (TGI) (OVCAR3 xenografts) [%] | synergy with JQ1 at fixed PARPi concentration (cancer cell lines) | synergistic effects in combinations with BRD4i (JQ1) (cancer cell lines) | PARP trapping activity (PARP) | other results
COc1nnc2ccc(N3CCC(c4ccc(OCCN5CCN(C)C(=O)[C@H]5C)cc4)CC3)nn12 [AZD5153] | 83 |  |  |  | RAD51 nuclear foci (HOC1 cells [1]): decreased RAD51 nuclear foci; HR repair (percentage of GFP+ cells) (U2OS DR-GFP cells): attenuated HR repair; HRD score (HRD gene signature): increased HRD score; numbers of white blood cells [2]: slight decrease but remained in the normal range
O=C(c1cc(Cc2n[nH]c(=O)c3ccccc23)ccc1F)N1CCN(C(=O)C2CC2)CC1 [Olaparib] | 35 | synergized with JQ1 | synergistic effects were maintained |  | 
Cn1ncnc1[C@H]1c2n[nH]c(=O)c3cc(F)cc(c23)N[C@@H]1c1ccc(F)cc1 [BMN673] |  | synergized with JQ1 |  | most active | DNA damage (comet assay) (HOC1 cells [3]): modestly induced DNA damage; sensitivity of PARP1-/- DT40 (DT40 cells): resistant; sensitivity of cell lines to PARPi alone (cancer cell lines; OAW42, A2780CP, A2780, UWB1.289, OC316, ARK1, HCC1187, BT20, MDA-MB-436): highly sensitive
NC(=O)c1cccc2cn(-c3ccc([C@@H]4CCCNC4)cc3)nc12 [Niraparib] |  |  |  | intermediate in activity | 
CNCc1ccc(-c2[nH]c3cc(F)cc4c3c2CCNC4=O)cc1 [Rucaparib] |  |  |  | intermediate in activity | 
C[C@]1(c2nc3c(C(N)=O)cccc3[nH]2)CCCN1 [ABT888] |  | synergized with JQ1 | synergistic effects were maintained | weakest | concentration required for PARP trapping (PARP): 50 mM
